In US11708344B2, “Flavone derivatives for the treatment and prophylaxis of hepatitis B virus disease” (Hoffmann-La Roche Inc., priority 2018, dated 2023):

Assays:
[1] = system: HBeAg (surrogate marker for cccDNA) in HepDES19 cells; test: Engineered HepDES19 primary screen assay (HBeAg ELISA); assay type: cell-based, HBV; conditions: Hepatitis B virus, HepDES19, 120 h, read-out: IC50 (HBeAg level, HepDES19 primary screen assay), HepDES19 cells, 5 days compound incubation, HBeAg ELISA
How it was run: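 IC50 values come from 4-parameter logistic fits of HBeAg ELISA signal, the cccDNA surrogate, with CCK-8 run in parallel for viability. Compounds at half-log dilutions with 1% DMSO were applied for 5 days at 37 °C to HepDES19 cells previously cultured 8 days without Tet.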

[2] = Human microsome stability assay; assay type: in vitro ADME; conditions: human liver microsomes, 1 μM test compound, 0.5 mg/mL microsomal protein, 37° C., pH 7.4, 0-30 minutes
How it was run: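 Parent compound remaining was measured by LC-MS/MS at 0, 3, 6, 9, 15 and 30 min, following ACN quench. Reactions held 1 μM compound and 0.5 mg/mL human liver microsomal protein in pH 7.4 phosphate buffer at 37 °C, started by NADPH regeneration (1 mM NADP, 1 mM MgCl2); controls lacked NADPH.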

Row | SMILES | IC50 [1] | Clearance of Human microsome [2]
1 | Cc1cc(-c2cc(=O)c3cccc(Cl)c3o2)c(O[C@H]2C[C@@H](C(=O)NS(C)(=O)=O)C2)cc1Br [Example B049-A, Cis-3-[5-bromo-2-(8-chloro-4-oxo-chromen-2-yl)-4-methyl-phenoxy]-N-methylsulfonyl-cyclobutanecarboxamide] | 12.2 µM | 7.5 mL/min/kg
2 | COc1cc(O[C@H]2C[C@@H](C(=O)NS(C)(=O)=O)C2)c(-c2cc(=O)c3cccc(Cl)c3o2)cc1C [Example B050-A, Cis-3-[2-(8-chloro-4-oxo-chromen-2-yl)-5-methoxy-4-methyl-phenoxy]-N-methylsulfonyl-cyclobutanecarboxamide] | 7.03 µM | 6.15 mL/min/kg
3 | COc1cc(-c2cc(=O)c3cccc(Cl)c3o2)c(O[C@H]2C[C@@H](C(=O)NS(C)(=O)=O)C2)cc1Br [Example B053-A, Cis-3-[5-bromo-2-(8-chloro-4-oxo-chromen-2-yl)-4-methoxy-phenoxy]-N-methylsulfonyl-cyclobutanecarboxamide] | 3.36 µM | 6.15 mL/min/kg
4 | COc1cc(-c2cc(=O)c3cccc(Cl)c3o2)c(O[C@H]2C[C@H](C(=O)NS(C)(=O)=O)C2)cc1Br [Example B053-B, Trans-3-[5-bromo-2-(8-chloro-4-oxo-chromen-2-yl)-4-methoxy-phenoxy]-N-methylsulfonyl-cyclobutanecarboxamide] | 0.912 µM | 6.15 mL/min/kg
5 | COc1cc(-c2cc(=O)c3cccc(Cl)c3o2)c(O[C@H]2C[C@@H](C(=O)NS(=O)(=O)C3CC3)C2)cc1Br [Example B054, Cis-3-[5-bromo-2-(8-chloro-4-oxo-chromen-2-yl)-4-methoxy-phenoxy]-N-cyclopropylsulfonyl-cyclobutanecarboxamide] | 1.65 µM | 6.15 mL/min/kg
6 | COc1cc(O[C@H]2C[C@@H](C(=O)NS(=O)(=O)C3CC3)C2)c(-c2cc(=O)c3cccc(Cl)c3o2)cc1Br [Example B056-A, Cis-3-[4-bromo-2-(8-chloro-4-oxo-chromen-2-yl)-5-methoxy-phenoxy]-N-cyclopropylsulfonyl-cyclobutanecarboxamide] | 9.44 µM | 6.48 mL/min/kg
7 | COc1cc(OC2CC(C(=O)NS(C)(=O)=O)C2)c(-c2cc(=O)c3cccc(Cl)c3o2)cc1OC (stereo not shown) [Example B057, 3-[2-(8-chloro-4-oxo-chromen-2-yl)-4,5-dimethoxy-phenoxy]-N-methylsulfonyl-cyclobutanecarboxamide] | 1.08 µM | 6.15 mL/min/kg
8 | NS(=O)(=O)CCCOc1cc(C(F)(F)F)ccc1-c1cc(=O)c2cccc(Cl)c2o1 [Example B072, 3-[2-(8-chloro-4-oxo-chromen-2-yl)-5-(trifluoromethyl)phenoxy]propane-1-sulfonamide] | 0.95 µM | 8.89 mL/min/kg
9 | O=C(O)[C@@H]1C[C@@H](Oc2cc(C(F)(F)F)ccc2-c2cc(=O)c3cccc(Cl)c3o2)CN1S(=O)(=O)C1CC1 [Example B077] | 0.657 µM | 6.15 mL/min/kg
10 | O=C(O)[C@@H]1C[C@H](Oc2cc(C(F)(F)F)ccc2-c2cc(=O)c3cccc(Cl)c3o2)CN1S(=O)(=O)C1CC1 [Example B078, (2S,4S)-4-[2-(8-chloro-4-oxo-chromen-2-yl)-5-(trifluoromethyl)phenoxy]-1-cyclopropylsulfonyl-pyrrolidine-2-carboxylic acid] | 0.541 µM | 6.15 mL/min/kg
11 | O=C(O)[C@@H]1C[C@H](Oc2cc(C(F)(F)F)ccc2-c2cc(=O)c3cccc(Cl)c3o2)CN1S(=O)(=O)c1ccccc1 [Example B080, (2S,4S)-1-(benzenesulfonyl)-4-[2-(8-chloro-4-oxo-chromen-2-yl)-5-(trifluoromethyl)phenoxy]pyrrolidine-2-carboxylic acid] | 1.2 µM | 6.15 mL/min/kg
12 | Cc1cc(-c2cc(=O)c3cccc(Cl)c3o2)c(O[C@H]2C[C@@H](C(=O)O)N(S(=O)(=O)c3ccccc3)C2)cc1Cl [Example B084, (2S,4S)-1-(benzenesulfonyl)-4-[5-chloro-2-(8-chloro-4-oxo-chromen-2-yl)-4-methyl-phenoxy]pyrrolidine-2-carboxylic acid] | 0.533 µM | 6.15 mL/min/kg
13 | O=C(O)[C@@H]1C[C@H](Oc2cc(Br)ccc2-c2cc(=O)c3cccc(Cl)c3o2)CN1C(=O)c1ccccc1 [Example B086] | 4.89 µM | 6.15 mL/min/kg
14 | O=C(O)[C@H]1C[C@H](Oc2cc(C(F)(F)F)ccc2-c2cc(=O)c3cccc(Cl)c3o2)CN1S(=O)(=O)c1ccccc1 [Example B087, (2R,4S)-1-(benzenesulfonyl)-4-[2-(8-chloro-4-oxo-chromen-2-yl)-5-(trifluoromethyl)phenoxy]pyrrolidine-2-carboxylic acid] | 3 µM | 6.15 mL/min/kg
15 | O=C(O)[C@H]1C[C@@H](Oc2cc(C(F)(F)F)ccc2-c2cc(=O)c3cccc(Cl)c3o2)CN1S(=O)(=O)c1ccccc1 [Example B088, (2R,4R)-1-(benzenesulfonyl)-4-[2-(8-chloro-4-oxo-chromen-2-yl)-5-(trifluoromethyl)phenoxy]pyrrolidine-2-carboxylic acid] | 1.85 µM | 6.15 mL/min/kg
16 | O=C(O)COCCCOc1cc(C(F)(F)F)ccc1-c1cc(=O)c2cccc(Cl)c2o1 [Example C001, 2-[3-[2-(8-chloro-4-oxo-chromen-2-yl)-5-(trifluoromethyl)phenoxy]propoxy]acetic acid] | 3.05 µM | 6.15 mL/min/kg
17 | COC(=O)C1CC(OCCOc2cc(Br)ccc2-c2cc(=O)c3cccc(Cl)c3o2)C1 (stereo not shown) [Example C003a, methyl 3-[2-[5-bromo-2-(8-chloro-4-oxo-chromen-2-yl)phenoxy]ethoxy]cyclobutanecarboxylate] | 0.4 µM | 6.15 mL/min/kg
18 | O=C(O)COCCOc1cc(C(F)(F)F)ccc1-c1cc(=O)c2cccc(Cl)c2o1 [Example C005, 2-[2-[2-(8-chloro-4-oxo-chromen-2-yl)-5-(trifluoromethyl)phenoxy]ethoxy]acetic acid] | 17.7 µM | 8.08 mL/min/kg
19 | O=C(O)COCCCOc1cc(Cl)ccc1-c1cc(=O)c2cccc(Cl)c2o1 [Example C009, 2-[3-[5-chloro-2-(8-chloro-4-oxo-chromen-2-yl)phenoxy]propoxy]acetic acid] | 2.66 µM | 6.15 mL/min/kg
20 | COc1cc(OCCCOCC(=O)O)c(-c2cc(=O)c3cccc(Cl)c3o2)cc1OC [Example C012, 2-[3-[2-(8-chloro-4-oxo-chromen-2-yl)-4,5-dimethoxy-phenoxy]propoxy]acetic acid] | 5.26 µM | 6.15 mL/min/kg
21 | Cc1cc(-c2cc(=O)c3cccc(Br)c3o2)c(OCCCOCC(=O)O)cc1Cl [Example C018, 2-[3-[2-(8-bromo-4-oxo-chromen-2-yl)-5-chloro-4-methyl-phenoxy]propoxy]acetic acid] | 4.82 µM | 6.74 mL/min/kg
22 | COc1cc(-c2cc(=O)c3cccc(Cl)c3o2)c(OCCOCC(=O)O)cc1Br [Example C020, 2-[2-[5-bromo-2-(8-chloro-4-oxo-chromen-2-yl)-4-methoxy-phenoxy]ethoxy]acetic acid] | 5.55 µM | 6.15 mL/min/kg
23 | Cc1cc(-c2cc(=O)c3cccc(Cl)c3o2)c(OCCOCC(=O)O)cc1Br [Example C021, 2-[2-[5-bromo-2-(8-chloro-4-oxo-chromen-2-yl)-4-methyl-phenoxy]ethoxy]acetic acid] | 9.25 µM | 7.66 mL/min/kg
24 | COc1cc(OCCOCC(=O)O)c(-c2cc(=O)c3cccc(Cl)c3o2)cc1OC [Example C022, 2-[2-[2-(8-chloro-4-oxo-chromen-2-yl)-4,5-dimethoxy-phenoxy]ethoxy]acetic acid] | 5.53 µM | 6.15 mL/min/kg
25 | O=C(O)COCCOc1cc(OC(F)(F)F)ccc1-c1cc(=O)c2cccc(Cl)c2o1 [Example C023, 2-[2-[2-(8-chloro-4-oxo-chromen-2-yl)-5-(trifluoromethoxy)phenoxy]ethoxy]acetic acid] | 3.99 µM | 6.15 mL/min/kg
26 | CC(CCOCC(=O)O)Oc1cc(C(F)(F)F)ccc1-c1cc(=O)c2cccc(Cl)c2o1 (stereo not shown) [Example C024, 2-[3-[2-(8-chloro-4-oxo-chromen-2-yl)-5-(trifluoromethyl)phenoxy]butoxy]acetic acid] | 0.909 µM | 6.15 mL/min/kg
27 | O=c1cc(-c2ncc(Br)cc2OCCO[C@H]2C[C@H](C(=O)O)C2)oc2c(Cl)cccc12 [Example C027] | 1.8 µM | 6.15 mL/min/kg
28 | O=c1cc(-c2ccc(Br)cc2OCCO[C@H]2C[C@@H](C(=O)O)C2)oc2c(Cl)cc(F)cc12 [Example C028, Cis-3-[2-[5-bromo-2-(8-chloro-6-fluoro-4-oxo-chromen-2-yl)phenoxy]ethoxy]cyclobutanecarboxylic acid] | 3.32 µM | 8.85 mL/min/kg
29 | O=c1cc(-c2cc(Br)c(F)cc2OCCO[C@H]2C[C@@H](C(=O)O)C2)oc2c(Cl)cccc12 [Example C032-A, Cis-3-[2-[4-bromo-2-(8-chloro-4-oxo-chromen-2-yl)-5-fluoro-phenoxy]ethoxy]cyclobutanecarboxylic acid] | 19.2 µM | 9.6 mL/min/kg
